Test results taken from patent US11191811B2, “Osteocalcin as a treatment for frailty associated with aging” (THE TRUSTEES OF COLUMBIA UNIVERSITY IN THE CITY OF NEW YORK, priority 2014, dated 2021).
“Also recorded” adds a separate entry of the source.

Columns and labels:
Osteocalcin−/− mice = test: Behavioral tests of adult Osteocalcin−/− offspring of osteocalcin-injected pregnant Osteocalcin−/− mothers; type: in vivo, mouse; details: 240 ng/day once a day to pregnant mothers, E0.5 to E18.5
Description: FIG. 13. Maternal osteocalcin determines spatial learning and memory in adult offspring. (A-F) DLT (A), EPMT (B), OFT (C), FST (D), TST (E), and MWMT (F) performed in 3-month-old Osteocalcin^−/− mice born from Osteocalcin^−/− mothers injected once a day with vehicle or recombinant uncarboxylated osteocalcin (240 ng/day) during pregnancy compared to WT mice. (G) Surface of the lateral ventricle over brain area (%) of E18.5 hippocampi coronal sections of WT embryos originating from WT mothers and Osteocalcin^−/− embryos originating from osteocalcin-injected Osteocalcin^−/− mothers. (H) Number of apoptotic cells (stained by TUNEL assay) of E18.5 hippocampi coronal sections of WT embryos originating from WT mothers and Osteocalcin^−/− embryos originating from Osteocalcin^−/− mothers injected with osteocalcin (240 ng/day). […]
For osteocalcin delivery to pregnant mice, IP injections (240 ng/day) were performed as soon as a plug was present daily until delivery (E0.5-E18.5). […] Leptin and osteocalcin content in sera and tissues were determined by ELISA.
Spatial memory was assessed with Morris water maze (MWM) setup (Morris, 1981, Nature 297:681-683) using a training protocol adapted for mice (D'Hooge et al., 2005, J. Soc. Neurosci. 25:6539-6549). […] Spatial learning is assessed across repeated trials (4 trials/day for 10 days). […]

WT mice = test: Endurance exercise on treadmill until exhaustion; type: in vivo, mouse; details: for muscle function / exercise capacity of young and old WT mice: 3 to 15 month-old WT mice
Description: First, whether a single intraperitoneal injection of uncarboxylated mouse osteocalcin (osteocalcin) (100 ng/g of body weight) immediately before exercise would improve the exercise capacity of 3 month-old WT mice was tested.
To determine if osteocalcin has the same ability in older mice, 12 and 15 month-old mice that have low circulating osteocalcin levels were injected prior to running with 500 ng/g of body weight of osteocalcin in order to raise their circulating levels substantially. […] This was due to an increase in the phosphorylation of Akt, AMPK and HSL, as well as in glucose uptake, that occurred to a greater extent in oxidative muscles that express Gprc6a at the highest level, than in glycolytic muscles (FIG. 31C-F). Whether chronic delivery of osteocalcin through mini-pumps (90 ng/hour) for 28 days would increase muscle function in 9 month old mice that have the lowest circulating osteocalcin levels was also tested. […] This improved ability to perform exercise was caused in part by an increase in the expression in muscle of the fatty acid transporter Fatp1 and an activation of the Akt pathway (FIG. 31H-).
For exercise studies, all mice were trained before the tests to run on a treadmill (Harvard apparatus) for three days (10 minutes/day). The day of the test, mice were acclimated to the treadmill for 5 minutes followed by 10 minutes running at a constant speed of 17 cm/s, then a gradual increase in the speed up to 30 cm/s. Next, mice were run until exhaustion as defined by the number of times a mouse fell off to the electric grid during one minute (>15). Measurements of muscle strength were carried out using a grip strength meter (Columbus instruments). Values are expressed as the average of five single measurements, taken one minute apart from each other. For all biochemical and metabolic analyses performed, blood/tissues were collected and processed either at rest or at the end of a 40 min run (30 cm/s).

Osteocalcin−/− embryos = test: Brain histology, apoptosis and Western blot of Osteocalcin−/− offspring of injected Osteocalcin−/− mothers; type: in vivo, mouse
Description: FIG. 13. Maternal osteocalcin determines spatial learning and memory in adult offspring. (A-F) DLT (A), EPMT (B), OFT (C), FST (D), TST (E), and MWMT (F) performed in 3-month-old Osteocalcin^−/− mice born from Osteocalcin^−/− mothers injected once a day with vehicle or recombinant uncarboxylated osteocalcin (240 ng/day) during pregnancy compared to WT mice. (G) Surface of the lateral ventricle over brain area (%) of E18.5 hippocampi coronal sections of WT embryos originating from WT mothers and Osteocalcin^−/− embryos originating from osteocalcin-injected Osteocalcin^−/− mothers. (H) Number of apoptotic cells (stained by TUNEL assay) of E18.5 hippocampi coronal sections of WT embryos originating from WT mothers and Osteocalcin^−/− embryos originating from Osteocalcin^−/− mothers injected with osteocalcin (240 ng/day). (I) Cresyl violet, NeuN immunofluorescence, and dentate gyrus area (% versus WT) of WT and Osteocalcin^−/− embryos originating from osteocalcin-injected Osteocalcin^−/− mothers. Scale bars=0.5 mm.
Immunofluorescence of whole adult and embryonic brains was performed on […] coronal cryostat slices of tissue fixed with 4% PFA, embedded in cryomatrix (Tissue-Tek) and stored at −80° C. Sections were allowed to dry at room temperature, post-fixed in 4% PFA followed by permeabilization with 0.1% Triton detergent. After room temperature blocking with donkey serum, sections were incubated with anti-Neun antibody (Millipore) overnight at 4° C. Slides were mounted with Fluorogel (Electron Microscopy Sciences).
Cresyl violet staining to visualize brain morphology was carried out by incubating 20 μm cryosections defatted with 1:1 chloroform:ethanol in cresyl violet acetate (1 g/L) overnight. The stain was differentiated using ethanol and xylene and mounted using DPX mounting medium for histology (Sigma).
To assess apoptosis in WT and Osteocalcin^−/− brains, 20 μm cryostat sections were processed using the APOPTAG® Fluorescein Direct In Situ Apoptosis Detection Kit (Millipore) according to manufacturer's protocol. Images were obtained using Leica DM 4000B, and Image J was used to quantify cell number and intensity of staining.
To further evaluate the importance of maternal osteocalcin for the acquisition of spatial learning and memory in adult offspring, pregnant Osteocalcin^−/− mothers from E0.5 to E18.5 were treated with injections, once a day, of osteocalcin (240 ng/day). Osteocalcin was never injected in these females or their pups after delivery. […] Likewise, the number of apoptotic cells was reduced and the number of NeuN positive cells was increased compared to Osteocalcin^−/− embryos originating from Osteocalcin^−/− mothers that were not injected (FIG. 13I-J).

wild-type = test: Glycolysis, extracellular acidification rate (ECAR); type: cell-based, mouse; details: ECAR (FIG. 20); in muscle
From the text: FIG. 20. Osteocalcin favors glycolysis. (a) Effect of increasing amounts of uncarboxylated osteocalcin on change in extracellular acidification rate (ECAR) in wild-type mice. The effect of insulin is also shown for comparison. (B) Effect of uncarboxylated osteocalcin on ECAR of wild-type and Gprc6a^−/− mice. (C) L-lactate production in wild-type and Gprc6a^−/− mice.

[1] = E18.5 embryos, versus embryos of mothers not injected

uncarboxylated osteocalcin: Recombinant uncarboxylated mouse osteocalcin, bacterially produced, purified on glutathione beads and cleaved from the GST subunit by thrombin (YLGASVPSPDPLEPTREQCELNPACDELSDQYGLKTAYKRIYGITI)
anxiety or depression phenotypes of the offspring (Osteocalcin−/− mice): did not have any beneficial effect
deficit in learning and memory of the offspring (Osteocalcin−/− mice): rescued over two third
increase of time and distance run on the treadmill before exhaustion (WT mice; 3 month-old WT mice, single intraperitoneal injection 100 ng/g of body weight immediately before exercise): over 20%
muscle function / exercise capacity of young and old WT mice (WT mice; listed as Osteocalcin): increases
muscle function / exercise capacity of young and old WT mice (WT mice; listed as osteocalcin): can improve
time and distance run / exercise capacity of older mice (WT mice; 12 and 15 month-old mice, 500 ng/g of body weight injected prior to running): the exercise capacity of 3 month-old mice; also recorded: the same time and distance as 3 month-old untreated mice; also recorded: run like young mice
time and distance run on the treadmill before exhaustion (WT mice; mini-pumps 90 ng/hour for 28 days, 9 month old mice): significant increase
increase of distance run (WT mice; wild-type mice, simple injection while they run on a treadmill): 20%
exercise capacity of young mice (WT mice; young (3 month-old) WT mice, exogenous osteocalcin): increases; also recorded: sufficient to increase
cerebral ventricle enlargement (Osteocalcin−/− embryos; E18.5 Osteocalcin−/− embryos, mothers injected 240 ng/day, cresyl violet): rescue
Caspase-3 cleaved protein level in the hippocampus (Osteocalcin−/− embryos; E18.5 embryos, Western blot, versus mothers not injected): decrease
number of NeuN positive cells (Osteocalcin−/− embryos; [1]): increased
number of apoptotic cells (Osteocalcin−/− embryos; [1]): reduced
thickness defect in the CA3 and CA4 regions of the hippocampus (Osteocalcin−/− embryos; adult Osteocalcin−/− originating from Osteocalcin−/− mothers): rescue
glycolysis (wild-type): favors
